Experimental data from patent US11446317B2, “Inositol phosphate-containing composition” (OTSUKA PHARMACEUTICAL CO., LTD., priority 2017, dated 2022).
Several values for one entry are separate records, joined by “and”; a condition that tells them apart may be missing. Identical values can stand only once.

How the values were obtained:
xanthine oxidase = settings: Non-Patent Document 4, cited from earlier work
healthy adults [1] = assay: Low intake test (12 weeks, 1 bottle per day) in healthy adults; assay type: in vivo, human; settings: for change in serum iron level: low intake test
Description: Subjects (39 healthy adults: 20 to 65 years of age, 13 men, premenopausal women, and 13 postmenopausal women) ingested 1 bottle of a test beverage per day for 12 weeks. The test beverage contains 600 mg of phytic acid per bottle (50 mL). Before and 4 weeks, 8 weeks, 12 weeks, and 14 weeks (i.e. 2 weeks after the last intake) after the start of the intake, blood of fasting was collected. The collected blood was measured for each test item by an analysis contractor. Tests for each endpoint compared to 0 week were performed with a paired t-test. Two-sided test was performed with a significance level of 5%.

[2] = target: T1, Phosphatase, Alkaline, Calf Intestine (Bos taurus, UniProt P19111); assay: Alkaline phosphatase inhibition (IMP to inosine); assay type: biochemical; settings: sample solution 10 mg/mL, pH 6.2 to 6.4, 37° C. 30 minutes
T1 construct: purchased Merck
T1 sequence (P19111 20-506): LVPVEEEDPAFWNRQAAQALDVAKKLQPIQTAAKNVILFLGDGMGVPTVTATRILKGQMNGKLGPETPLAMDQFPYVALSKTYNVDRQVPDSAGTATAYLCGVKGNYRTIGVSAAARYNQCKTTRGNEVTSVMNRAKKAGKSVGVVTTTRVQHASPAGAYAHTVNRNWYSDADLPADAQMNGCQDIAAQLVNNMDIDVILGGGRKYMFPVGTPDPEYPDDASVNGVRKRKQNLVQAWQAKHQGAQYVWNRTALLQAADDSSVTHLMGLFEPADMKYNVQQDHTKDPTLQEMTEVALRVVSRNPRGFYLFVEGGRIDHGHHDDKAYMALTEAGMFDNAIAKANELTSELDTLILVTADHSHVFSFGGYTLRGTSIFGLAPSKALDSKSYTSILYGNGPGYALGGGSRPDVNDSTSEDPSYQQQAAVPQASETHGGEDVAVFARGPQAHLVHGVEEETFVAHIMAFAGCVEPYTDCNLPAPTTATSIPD
Description: Phosphatase, Alkaline, Calf Intestine (Merck) dissolved in the assay buffer (2.37% aqueous solution of Trizma® maleate (Sigma-Aldrich)) at 5.0 U/mL was used as the enzyme solution.
Inosine monophosphate (IMP) (Sigma-Aldrich) dissolved in the assay buffer at 9 mM was used as the substrate solution.
Phytic acid and the assay buffer were mixed, and the pH was adjusted to 6.2 to 6.4 with sodium hydroxide to obtain a sample solution (10 mg/mL). The control solution was prepared by adjusting the assay buffer to pH 6.2 to 6.4 with sodium hydroxide.
(§1) Enzymatic reaction was performed using a 96 well plate (Thermo Fisher Scientific) in the following manner.
The sample solution or control solution (100 μL/well), the substrate solution (100 μL/well), and the enzyme solution (100 μL/well) were added, and the enzyme reaction was performed at 37° C. for 30 minutes. A 20 μL aliquot of the reaction solution was transferred to multi-screen FITS HV (Merck Millipore), and the reaction was stopped by adding the stop solution (0.33 M HClO4, 180 μl/well). Centrifuge (1080×g for 10 minutes at room temperature) was performed, and the filtrate was subjected to high performance liquid chromatography (HPLC) to determine the amounts of inosine monophosphate and inosine.
The analytical conditions of HPLC are shown below.
Detector: SPD-M 30 A (Shimadzu Corporation) […]

[3] = test system: alkaline phosphatase and 5′nucleotidase (rat small intestine powder); assay: Purine nucleotide metabolism inhibition (IMP to inosine) using rat small intestine powder; assay type: biochemical; settings: pH 6.2 to 6.4, 37° C. 30 minutes
Description: The rat small intestine powder contains alkaline phosphatase and 5′nucleotidase as the main digestive enzymes. The inhibition of metabolism of purine nucleotides to purine nucleosides by phytic acid was investigated.
A 100 mg/mL of solution of rat small intestine powder (Clare Japan, Inc.) in the assay buffer (2.37% aqueous solution of Trizma® maleate (Sigma-Aldrich)) was used as the enzyme solution. Inosine monophosphate (IMP) (Sigma-Aldrich) (9 mM) in the assay buffer was used as the substrate solution.
Phytic acid and the assay buffer were mixed, and the pH was adjusted to 6.2 to 6.4 with sodium hydroxide to obtain the sample solutions of each concentration. The control solution was prepared by adjusting the assay buffer to pH 6.2 to 6.4 with sodium hydroxide.
as §1
The sample solution or control solution (100 μL/well), the substrate solution (100 μL/well), and the enzyme solution (100 μL/well) were added, and the enzyme reaction was performed at 37° C. for 30 minutes. A 20 μL aliquot of the reaction solution was transferred to multi-screen HTS HV (Merck Millipore), and the reaction was stopped by adding the stop solution (0.33 M HClO4, 180 μL/well). […]

healthy adults [4] = assay: High intake test (5 weeks, 3 to 5 bottles per day) in healthy adults; assay type: in vivo, human; settings: for change in serum iron level: high intake test
Description: The subjects (48 healthy adults: 20 to 65 years of age, 16 men, 16 premenopausal women, and 16 postmenopausal women) ingested 5 bottles per day (or 3 to 5 bottles per day depending on the subject's capacity) of test beverage. The test beverage contains 600 mg of phytic acid per bottle (50 mL). The duration of intake was 5 weeks. The first week being a time period to determine each subject's tolerable volume of test beverage, during which time the subjects ingested test beverages while increasing one bottle daily (Up to 5 bottles per day). If 5 bottles/day could not be taken due to taste, volume, etc., the intake volume was determined by each subject, and the intake volume on day 7 was taken as the tolerable volume for each subject, and each subject ingested this tolerable volume (3 to 5 bottles per day) during the remaining study period (4 weeks). Before and 3 weeks, 5 weeks, and 7 weeks (i.e. 2 weeks after the last intake) after the start of the intake, blood pressure of fasting was measured and blood of fasting was collected. The collected blood was measured for each test item by an analysis contractor. Tests for blood pressure, blood glucose, AST, and serum iron compared to 0 week were performed with a paired t-test, and tests for 1, 25-(OH)2-D compared to 0 week were performed with one-way ANOVA followed by Dunnet's multiple comparison method. A two-sided test was performed with a significance level of 5%. The analysis included 44 subjects excluding 2 subjects who withdrew their consent and 2 subjects who were unable to take more than 3 bottles of the test beverage.

[5] = ingestion of 1,400 mg of sodium phytate (1,000 mg as phytic acid); cited from earlier work

O=P(O)(O)O[C@H]1[C@H](OP(=O)(O)O)[C@@H](OP(=O)(O)O)[C@H](OP(=O)(O)O)[C@@H](OP(=O)(O)O)[C@H]1OP(=O)(O)O [phytic acid]
IC50 of inhibition of xanthine oxidase activity (conversion of xanthine to uric acid) (xanthine oxidase): ~19.8 mg/mL | IC50 (xanthine oxidase; read-out: IC50 of inhibition of xanthine oxidase activity (conversion of xanthine to uric acid)): ~30 mM | change in HbA1c level (healthy adults [1]; high HbA1c level group (5.5 or more at 0 week)): significant decrease | change in blood glucose level (healthy adults [1]; high blood glucose level group (86 or more at 0 week)): significant decrease | change in serum iron level (healthy adults [1]; high level group (132 or more at 0 week)): significant decreases | change in serum iron level (healthy adults [1]; low level group (90 or less at 0 week)): significant rises | change in serum iron level (healthy adults [1]; middle level group (90 to 132 at 0 week)): no large changes | inhibition of metabolism of inosine monophosphate to inosine by alkaline phosphatase [2]: inhibits the conversion of purine nucleotides into purine nucleosides | inhibition of metabolism of inosine monophosphate to inosine [3]: inhibits the conversion of purine nucleotides into purine nucleosides | change in 1,25-(OH)2-D level (healthy adults [4]; 5 weeks after ingestion compared with before ingestion): significant increase | change in diastolic blood pressure (healthy adults [4]; high diastolic blood pressure group (86.3 or more at 0 week)): significant decrease | change in serum iron level (healthy adults [4]; high level group (117 or more at 0 week)): significant decreases | change in serum iron level (healthy adults [4]; low level group (79 or less at 0 week)): significant rises | change in serum iron level (healthy adults [4]; middle level group (79 to 117 at 0 week)): no large changes | change in AST level (healthy adults [4]; high level group (21 or more at 0 week), 3, 5, and 7 weeks compared with before ingestion): significant decreases | change in systolic blood pressure (healthy adults [4]; high systolic blood pressure group (126 or more at 0 week)): significant decrease | change in diastolic blood pressure (healthy adults [4]; low diastolic blood pressure group (73.8 or less at 0 week)): no change | change in AST level (healthy adults [4]; low level group (17 or less at 0 week), 3 weeks compared with before ingestion, change not large): significant increase | change in systolic blood pressure (healthy adults [4]; low systolic blood pressure group (115.5 or less at 0 week)): no change | change in diastolic blood pressure (healthy adults [4]; middle diastolic blood pressure group (73.8 to 86.3 at 0 week)): no change | change in systolic blood pressure (healthy adults [4]; middle systolic blood pressure group (115.5 to 126 at 0 week)): significant change but it was not large

O=P([O-])([O-])O[C@H]1[C@H](OP(=O)([O-])O)[C@H](OP(=O)([O-])[O-])[C@H](OP(=O)([O-])O)[C@@H](OP(=O)([O-])[O-])[C@@H]1OP(=O)([O-])O.[Na+].[Na+].[Na+].[Na+].[Na+].[Na+].[Na+].[Na+].[Na+] [sodium phytate]
blood phytic acid concentration at the maximum [5]: 0.12 mg/L and 0.181 μM
